Assay results as given in patent publication US9409905B2, “Antibacterial compounds and methods for use” (PTC THERAPEUTICS, INC., priority 2011, dated 2016).
Values after ≈ are worked out from the molar mass of the structure shown.

Key:
[1] = test system: Escherichia coli (E. coli) BAS849; test: Antibacterial activity, microbroth dilution MIC (Table 1); assay type: cell-based; conditions: microbroth dilution, super sensitive Gram-negative E. coli BAS849, read-out: MIC, BAS849
Description: (§1) The antibacterial activity from a microbroth dilution method may be presented as the minimum inhibitory concentration (MIC in μg/mL). The MIC value is the lowest concentration of drug which prevents macroscopically visible growth under test conditions.
(§2) Antibacterial activity of test compounds against the super sensitive Gram-negative Escherichia coli (E. coli) BAS849 bacterium, the control Gram-negative E. coli 25922 strain and the Gram-positive Staphylococcus aureus (S. aureus) 29213 bacterium are shown in Table 1.

[2] = test system: Staphylococcus aureus (S. aureus) 29213; test: as above; assay type: cell-based; conditions: microbroth dilution, Gram-positive S. aureus 29213, read-out: MIC, 29213
Description: as §1, §2

E. coli 25922 = test: as above; assay type: cell-based, Escherichia coli; conditions: Escherichia coli; microbroth dilution; control Gram-negative E. coli 25922 strain; read-out: MIC, 25922
Description: as §1, §2

E. coli LZ3111 = test: Antibacterial activity, MIC, quinolone resistant strain (Table 2); assay type: cell-based; conditions: Escherichia coli, LZ3111, read-out: MIC LZ3111
Description: as §1
Mutations in these regions are known to confer a high level resistance to the quinolone class of antibiotics.

## CCc1cc(C(=O)O)c(=O)[nH]c1-c1cc(C)c2c(c1)cc(CN1CCCC1)n2C [Cpd 99, 6-(1,7-dimethyl-2-(pyrrolidin-1-ylmethyl)-1H-indol-5-yl)-5-ethyl-2-oxo-1,2-dihydropyridine-3-carboxylic acid]
[1]
  MIC: < 1 µg/mL
[2]
  MIC: 12.5 to 150 µg/mL (≈ 31.8 to 381 µM)
E. coli 25922
  MIC: 3.5 to 12.5 µg/mL (≈ 8.89 to 31.8 µM)
E. coli LZ3111
  MIC: 12.5 to 150 µg/mL (≈ 31.8 to 381 µM)

## CCc1cc(C(=O)O)c(=O)[nH]c1-c1cc(C)c2c(c1)cc(CN1CCCCC1)n2C [Cpd 100, 6-(1,7-dimethyl-2-(piperidin-1-ylmethyl)-1H-indol-5-yl)-5-ethyl-2-oxo-1,2-dihydropyridine-3-carboxylic acid]
[1]
  MIC: < 1 µg/mL
[2]
  MIC: 12.5 to 150 µg/mL (≈ 30.7 to 368 µM)
E. coli 25922
  MIC: 3.5 to 12.5 µg/mL (≈ 8.59 to 30.7 µM)
E. coli LZ3111
  MIC: 12.5 to 150 µg/mL (≈ 30.7 to 368 µM)

## CCc1cc(C(=O)O)c(=O)[nH]c1-c1cc(F)c2c(c1)cc(CN(CC)CC)n2C [Cpd 101, 6-(2-((diethylamino)methyl)-7-fluoro-1-methyl-1H-indol-5-yl)-5-ethyl-2-oxo-1,2-dihydropyridine-3-carboxylic acid]
[1]
  MIC: < 1 µg/mL
[2]
  MIC: 12.5 to 150 µg/mL (≈ 31.3 to 376 µM)
E. coli 25922
  MIC: 3.5 to 12.5 µg/mL (≈ 8.76 to 31.3 µM)
E. coli LZ3111
  MIC: 12.5 to 150 µg/mL (≈ 31.3 to 376 µM)

## CCc1cc(C(=O)O)c(=O)[nH]c1-c1cc(F)c2c(c1)cc(CN1CCCCC1)n2C [Cpd 102, 5-ethyl-6-(7-fluoro-1-methyl-2-(piperidin-1-ylmethyl)-1H-indol-5-yl)-2-oxo-1,2-dihydropyridine-3-carboxylic acid]
[1]
  MIC: < 1 µg/mL
[2]
  MIC: 12.5 to 150 µg/mL (≈ 30.4 to 365 µM)
E. coli 25922
  MIC: 3.5 to 12.5 µg/mL (≈ 8.51 to 30.4 µM)
E. coli LZ3111
  MIC: 12.5 to 150 µg/mL (≈ 30.4 to 365 µM)

## CCc1cc(C(=O)O)c(=O)[nH]c1-c1cc(C)c2c(c1)cc(CN1CCOCC1)n2C [Cpd 103, 6-(1,7-dimethyl-2-(morpholinomethyl)-1H-indol-5-yl)-5-ethyl-2-oxo-1,2-dihydropyridine-3-carboxylic acid]
[1]
  MIC: < 1 µg/mL
[2]
  MIC: 12.5 to 150 µg/mL (≈ 30.5 to 366 µM)
E. coli 25922
  MIC: 12.5 to 150 µg/mL (≈ 30.5 to 366 µM)
E. coli LZ3111
  MIC: 12.5 to 150 µg/mL (≈ 30.5 to 366 µM)

## CCc1cc(C(=O)O)c(=O)[nH]c1-c1cc(C)c2c(c1)cc(CN(CC)CC)n2C [Cpd 104, 6-(2-((diethylamino)methyl)-1,7-dimethyl-1H-indol-5-yl)-5-ethyl-2-oxo-1,2-dihydropyridine-3-carboxylic acid]
[1]
  MIC: < 1 µg/mL
[2]
  MIC: 12.5 to 150 µg/mL (≈ 31.6 to 379 µM)
E. coli 25922
  MIC: 3.5 to 12.5 µg/mL (≈ 8.85 to 31.6 µM)
E. coli LZ3111
  MIC: 12.5 to 150 µg/mL (≈ 31.6 to 379 µM)

## CCc1cc(C(=O)O)c(=O)[nH]c1-c1cc(C)c2c(c1)cc(CN(C)C)n2C [Cpd 105, 6-(2-((dimethylamino)methyl)-1,7-dimethyl-1H-indol-5-yl)-5-ethyl-2-oxo-1,2-dihydropyridine-3-carboxylic acid]
[1]
  MIC: < 1 µg/mL
[2]
  MIC: 12.5 to 150 µg/mL (≈ 34 to 408 µM)
E. coli 25922
  MIC: 3.5 to 12.5 µg/mL (≈ 9.53 to 34 µM)
E. coli LZ3111
  MIC: 12.5 to 150 µg/mL (≈ 34 to 408 µM)

## CCc1cc(C(=O)O)c(=O)[nH]c1-c1cc(F)c2c(c1)cc(CN(C)C)n2C [Cpd 106, 6-(2-((dimethylamino)methyl)-7-fluoro-1-methyl-1H-indol-5-yl)-5-ethyl-2-oxo-1,2-dihydropyridine-3-carboxylic acid]
[1]
  MIC: < 1 µg/mL
[2]
  MIC: 12.5 to 150 µg/mL (≈ 33.7 to 404 µM)
E. coli 25922
  MIC: 1 to 3.5 µg/mL (≈ 2.69 to 9.42 µM)
E. coli LZ3111
  MIC: 12.5 to 150 µg/mL (≈ 33.7 to 404 µM)

## CCc1cc(C(=O)O)c(=O)[nH]c1-c1cc2cc(CN3CCCC3)n(C)c2cc1OC [Cpd 107, 5-ethyl-6-(6-methoxy-1-methyl-2-(pyrrolidin-1-ylmethyl)-1H-indol-5-yl)-2-oxo-1,2-dihydropyridine-3-carboxylic acid]
[1]
  MIC: 12.5 to 150 µg/mL (≈ 30.5 to 366 µM)
[2]
  MIC: 12.5 to 150 µg/mL (≈ 30.5 to 366 µM)
E. coli 25922
  MIC: 12.5 to 150 µg/mL (≈ 30.5 to 366 µM)
E. coli LZ3111
  MIC: 12.5 to 150 µg/mL (≈ 30.5 to 366 µM)

## CCc1cc(C(=O)O)c(=O)[nH]c1-c1cc2cc(CN3CCOCC3)n(C)c2cc1OC [Cpd 108, 5-ethyl-6-(6-methoxy-1-methyl-2-(morpholinomethyl)-1H-indol-5-yl)-2-oxo-1,2-dihydropyridine-3-carboxylic acid]
[1]
  MIC: 12.5 to 150 µg/mL (≈ 29.4 to 353 µM)
[2]
  MIC: 12.5 to 150 µg/mL (≈ 29.4 to 353 µM)
E. coli 25922
  MIC: 12.5 to 150 µg/mL (≈ 29.4 to 353 µM)
E. coli LZ3111
  MIC: 12.5 to 150 µg/mL (≈ 29.4 to 353 µM)

## CCc1c(-c2ccc3c(c2)cc(CN2CCC2)n3C)[nH]c(=O)c(C(=O)O)c1C(=O)O [Cpd 109, 6-(2-(azetidin-1-ylmethyl)-1-methyl-1H-indol-5-yl)-5-ethyl-2-oxo-1,2-dihydropyridine-3,4-dicarboxylic acid]
[1]
  MIC: 12.5 to 150 µg/mL (≈ 30.5 to 366 µM)
[2]
  MIC: 12.5 to 150 µg/mL (≈ 30.5 to 366 µM)
E. coli 25922
  MIC: 12.5 to 150 µg/mL (≈ 30.5 to 366 µM)
E. coli LZ3111
  MIC: 12.5 to 150 µg/mL (≈ 30.5 to 366 µM)

## CCc1c(-c2ccc3c(c2)cc(CN2CCCC2)n3C)[nH]c(=O)c(C(=O)O)c1C(=O)O [Cpd 110, 5-ethyl-6-(1-methyl-2-(pyrrolidin-1-ylmethyl)-1H-indol-5-yl)-2-oxo-1,2-dihydropyridine-3,4-dicarboxylic acid]
[1]
  MIC: 12.5 to 150 µg/mL (≈ 29.5 to 354 µM)
[2]
  MIC: 12.5 to 150 µg/mL (≈ 29.5 to 354 µM)
E. coli 25922
  MIC: 12.5 to 150 µg/mL (≈ 29.5 to 354 µM)
E. coli LZ3111
  MIC: 12.5 to 150 µg/mL (≈ 29.5 to 354 µM)

## CCc1c(-c2ccc3c(c2)cc(CN(C)C)n3C)[nH]c(=O)c(C(=O)O)c1C(=O)O [Cpd 111, 6-(2-((dimethylamino)methyl)-1-methyl-1H-indol-5-yl)-5-ethyl-2-oxo-1,2-dihydropyridine-3,4-dicarboxylic acid]
[1]
  MIC: 12.5 to 150 µg/mL (≈ 31.5 to 377 µM)
[2]
  MIC: 12.5 to 150 µg/mL (≈ 31.5 to 377 µM)
E. coli 25922
  MIC: 12.5 to 150 µg/mL (≈ 31.5 to 377 µM)
E. coli LZ3111
  MIC: 12.5 to 150 µg/mL (≈ 31.5 to 377 µM)

## CCc1cc(C(=O)O)c(=O)[nH]c1-c1ccc2c(c1)cc(CNC)n2C [Cpd 112, 5-ethyl-6-(1-methyl-2-((methylamino)methyl)-1H-indol-5-yl)-2-oxo-1,2-dihydropyridine-3-carboxylic acid]
[1]
  MIC: < 1 µg/mL
[2]
  MIC: 12.5 to 150 µg/mL (≈ 36.8 to 442 µM)
E. coli 25922
  MIC: < 1 µg/mL
E. coli LZ3111
  MIC: 12.5 to 150 µg/mL (≈ 36.8 to 442 µM)

## CCc1cc(C(=O)O)c(=O)[nH]c1-c1ccc2c(c1)cc(CNC(C)(C)C)n2C [Cpd 113, 6-(2-((tert-butylamino)methyl)-1-methyl-1H-indol-5-yl)-5-ethyl-2-oxo-1,2-dihydropyridine-3-carboxylic acid]
[1]
  MIC: < 1 µg/mL
[2]
  MIC: 12.5 to 150 µg/mL (≈ 32.8 to 393 µM)
E. coli 25922
  MIC: < 1 µg/mL
E. coli LZ3111
  MIC: 12.5 to 150 µg/mL (≈ 32.8 to 393 µM)

## CCc1cc(C(=O)O)c(=O)[nH]c1-c1ccc2c(c1)cc(CNCc1ccccc1)n2C [Cpd 114, 6-(2-((benzylamino)methyl)-1-methyl-1H-indol-5-yl)-5-ethyl-2-oxo-1,2-dihydropyridine-3-carboxylic acid]
[1]
  MIC: < 1 µg/mL
[2]
  MIC: 3.5 to 12.5 µg/mL (≈ 8.42 to 30.1 µM)
E. coli 25922
  MIC: < 1 µg/mL
E. coli LZ3111
  MIC: 12.5 to 150 µg/mL (≈ 30.1 to 361 µM)

## CCc1cc(C(=O)O)c(=O)[nH]c1-c1ccc2c(c1)cc(CNC(C)(C)c1ccccc1)n2C [Cpd 115, 5-ethyl-6-(1-methyl-2-((2-phenylpropan-2-ylamino)methyl)-1H-indol-5-yl)-2-oxo-1,2-dihydropyridine-3-carboxylic acid]
[1]
  MIC: < 1 µg/mL
[2]
  MIC: 1 to 3.5 µg/mL (≈ 2.25 to 7.89 µM)
E. coli 25922
  MIC: < 1 µg/mL
E. coli LZ3111
  MIC: 12.5 to 150 µg/mL (≈ 28.2 to 338 µM)

## CCc1cc(C(=O)O)c(=O)[nH]c1-c1ccc2c(c1)cc(CN[C@H](C)c1ccccc1)n2C [Cpd 116, (R)-5-ethyl-6-(1-methyl-2-((1-phenylethylamino)methyl)-1H-indol-5-yl)-2-oxo-1,2-dihydropyridine-3-carboxylic acid]
[1]
  MIC: < 1 µg/mL
[2]
  MIC: 1 to 3.5 µg/mL (≈ 2.33 to 8.15 µM)
E. coli 25922
  MIC: < 1 µg/mL
E. coli LZ3111
  MIC: 12.5 to 150 µg/mL (≈ 29.1 to 349 µM)

## CCc1cc(C(=O)O)c(=O)[nH]c1-c1ccc2c(c1)cc(CN[C@@H](C)c1ccccc1)n2C [Cpd 117, (S)-5-ethyl-6-(1-methyl-2-((1-phenylethylamino)methyl)-1H-indol-5-yl)-2-oxo-1,2-dihydropyridine-3-carboxylic acid]
[1]
  MIC: < 1 µg/mL
[2]
  MIC: 12.5 to 150 µg/mL (≈ 29.1 to 349 µM)
E. coli 25922
  MIC: < 1 µg/mL
E. coli LZ3111
  MIC: 12.5 to 150 µg/mL (≈ 29.1 to 349 µM)

## CCc1cc(C(=O)O)c(=O)[nH]c1-c1ccc2c(c1)cc(CN[C@H](CC)c1ccccc1)n2C [Cpd 118, (R)-5-ethyl-6-(1-methyl-2-((1-phenylpropylamino)methyl)-1H-indol-5-yl)-2-oxo-1,2-dihydropyridine-3-carboxylic acid]
[1]
  MIC: < 1 µg/mL
[2]
  MIC: 1 to 3.5 µg/mL (≈ 2.25 to 7.89 µM)
E. coli 25922
  MIC: 1 to 3.5 µg/mL (≈ 2.25 to 7.89 µM)
E. coli LZ3111
  MIC: 12.5 to 150 µg/mL (≈ 28.2 to 338 µM)
